Reference: US20130071487A1, “XENON-BASED INHALABLE DRUG FOR PREVENTING ADDICTION RELAPSES IN HUMANS” (L'Air Liquide, Societe Anonyme pour l'Etude et …, priority 2010, published 2013)

Tests used:
[1] = system: alcohol consumption after deprivation; test: Alcohol deprivation effect model (EAD); assay type: in vivo, male Wistar rats; details: rat; for effect on alcohol consumption after deprivation (consumption curve versus control) / difference in area under curve versus control group N2/O2: EAD model; for effect on alcohol consumption after deprivation (consumption curve versus control): 50%/50% gas/O2, FIG. 2 and FIG. 3; for difference in area under curve versus control group N2/O2: 50%/50% gas/O2, control 16.34±0.9 g/kg*day; for area under curve of total ethanol consumption: two 1 hour inhalation exposures to 50%/50% gas/O2 mixture, consumption measured daily for 6 post-abstinence days, control N2/O2 16.34±0.9
Source text: The alcohol deprivation model (EAD) comprises habituating the animals to consumption of alcohol for a period of 8 weeks, followed by a period of deprivation of 2 weeks, during which alcohol was withdrawn. This cycle is repeated 8 times. After a period of deprivation, access to alcohol causes a significant but temporary increase in alcohol consumption compared to the reference level. This model is ideal for studying behavior during relapse. It was validated with nacamprosate and naltrexone.
The following experimental protocol was followed.
16 male Wistar rats have free and continuous access to 2 feeding bottles, one containing tap water and the other containing 5%, 10% and 20% ethanol (vol./ vol.) in their cages.
The first two-week deprivation period is introduced after 8 weeks of continuously available alcohol, as illustrated in FIG. 1.
After this deprivation period, the rats will have access to alcohol and again to at least 2 more randomly introduced periods of deprivation.
All the animals are divided into 2 groups (8 rats/group) so that for the mean baseline (week 23), the total alcohol consumption will be essentially the same in each group.
On the last day of week 25 at about 9 am, […] animals are exposed to the Xe/O2 (50%/50%) gaseous mixture for 1 hour.
The control group is exposed to N2/O2 (50%/50%). The following day at 9 am all the animals are exposed for a second time to these same gaseous mixtures for 1 hour.
The exposures to the gaseous mixture are represented by two arrows in FIG. 2.
Following this last exposure, the bottles of alcohol will again be offered (post-abstinence days).
Following exposures to the different gases, the total consumption of ethanol (g/kg of body weight) is measured daily at about 10 am, for 6 days.

[2] = system: stimuli-induced alcoholic relapse; test: Stimuli-induced alcoholic relapse model; assay type: in vivo, male Wistar rats; details: rat, 1 hour gas exposure 24 hours and 3 hours before the relapse test, FIG. 5
Protocol: Another animal model well-established in the literature was used to evaluate the anti-relapse effects of xenon, namely the stimuli-induced alcoholic relapse model.
This model is based on the fact that taking drugs or alcohol capable of leading to dependence is associated with a number of environmental stimuli (auditory, olfactory, visual) which are themselves likely to lead to a relapse.
Briefly, the experiments were carried out in conditioning chambers equipped with 2 levers allowing the distribution of water or of alcohol.
24 male Wistar rats were used. The animals are trained to self-administer ethanol at 10% by volume during the course of daily sessions lasting 30 minutes.
During the conditioning phase, the animals are trained to distinguish between the availability of alcohol and of water. Stimulus 1 (orange extract) is the signal for availability of alcohol and each pressing of lever No.1 results in conditioned stimulus No.1 (flashing light) and the immediate distribution of alcohol (30 μl). Furthermore, lever No.2 remains unused during the “alcohol sessions” throughout the experiment.
Stimulus n° 2 (anise extract) will give the signal for availability of water during the “water sessions” and each pressing of lever No.2 results in the presentation of conditioned stimulus No.2 (constant light) and the distribution of water (30 μl). […]

[3] = system: alcohol consumption following alcohol deprivation; details: alcohol-dependent rats; cited from earlier work

Row | SMILES | effect on alcohol consumption after deprivation (consumption curve versus control) [1] | difference in area under curve versus control group N2/O2 [1] | area under curve of total ethanol consumption [1] | number of presses on the lever delivering the alcohol following exposure to stimulus-1, compared to control N2/O2 50%/50% [2] | effect on increase in alcohol consumption following alcohol deprivation [3]
1 | [Xe] [xenon] | reduction in alcohol consumption | difference of two units | 14.28±1.3 g/kg*day | significant reduction | 
2 | CC(=O)NCCCS(=O)(=O)O [acamprosate] |  |  |  |  | a reduction was noted in detrimental effects
3 | [N-]=[N+]=O [N2O, nitrous oxide] | reduces this alcohol consumption to a much lesser extent | 1 | 15.34±1.3 g/kg*day | no significant effect | 
